Results as given in BindingDB's records for doi:10.1021/jm020562o (University of Vermont, 2003).
pKi: −log10 of the molar value.

Assay: Binding affinity was determined against Opioid receptor delta 1 from guinea pig brain membranes

Compound: COCC[C@H]1CC2CN3CCc4c([nH]c5ccccc45)[C@](C(=O)OC)(C2)C13 [18-methoxycoronaridine]
- pKi: 5.46
